According to ChEMBL document CHEMBL3112416, “Designing analogs of ticlopidine, a wall teichoic acid inhibitor, to avoid formation of its oxidative metabolites” (Bioorg Med Chem Lett, 2014):

Legend:
Staphylococcus aureus [1] = assay: Ratio of MIC for community acquired methicillin-resistant Staphylococcus aureus USA300 in presence of targocil to MIC for community acquired methicillin-resistant Staphylococcus aureus USA300 by checkerboard broth microdilution assay; type: functional
Staphylococcus aureus [2] = assay: Ratio of MIC for community acquired methicillin-resistant Staphylococcus aureus USA300 in presence of cefuroxime to MIC for community acquired methicillin-resistant Staphylococcus aureus USA300 by checkerboard broth microdilution assay; type: functional
[3] = Displacement of UDP-[14C]GlcNAc from TarO (unknown origin) after 2.5 hrs by scintillation counting analysis

Row | SMILES | fractional inhibitory concentration index (FICI) (Staphylococcus aureus [1]) | fractional inhibitory concentration index (FICI) (Staphylococcus aureus [2]) | IC50 [3] [µM]
1 | Clc1ccccc1CN1CCC2CCCCC2C1 (stereo not drawn) | 2 | 2 | 
2 | Oc1ccc2c(c1)CN(Cc1ccccc1Cl)CC2 | 4.5 | 2 | 
3 | O=C(O)C(c1ccccc1Cl)N1CCc2ccccc2C1 (racemic) | 2 | 0.75 | 440
4 | Clc1ccccc1CN1CCc2ccccc2C1 | 8.1 | 0.13 | 520
5 | COC(=O)C(c1ccccc1Cl)N1CCc2ccccc2C1 (racemic) | 8.2 | 0.19 | 190
6 | Clc1ccccc1CN1CCc2sccc2C1 [TICLOPIDINE] | 8.3 | 0.13 | 150
7 | Cc1ccccc1CN1CCc2ccccc2C1 | 8.1 | 0.13 | 
8 | Clc1ccc(CN2CCc3ccccc3C2)cc1 | 8.1 | 2 | 
9 | c1ccc2c(c1)CCN(Cc1ccncc1)C2 | 2 | 2 | 
10 | Clc1ccccc1C[n+]1ccc2ccccc2c1 | 2 | 2 | > 5000
11 | FC(F)(F)c1ccccc1CN1CCc2ccccc2C1 | 8.3 | 0.094 | 350
12 | c1cc2c(s1)CCNC2 | 2 | 2 | 4300
13 | O=C(O)C(c1ccccc1C(F)(F)F)N1CCc2ccccc2C1 (racemic) | 2 | 2 | 
14 | c1ccc2c(c1)CCN(Cc1ccc3ccccc3c1)C2 | 8.1 | 0.31 | 220
15 | COC(=O)C(c1ccccc1C(F)(F)F)N1CCc2ccccc2C1 (racemic) | 8.3 | 0.13 | 
16 | CCN1CCN(Cc2ccccc2Cl)CC1 | 2 | 2 | 
17 | Fc1ccccc1CN1CCc2ccccc2C1 | 8 | 0.25 | 
18 | O=C(O)C(c1ccccc1Cl)N1CCc2sccc2C1 (racemic) | 2 | 0.75 | 
19 | Clc1ccccc1CC1CCc2ccccc2N1 (stereo not drawn) | 8.3 | 0.19 | 270
20 | NC(=O)C(c1ccccc1C(F)(F)F)N1CCc2ccccc2C1 (racemic) | 2 | 1 | 
21 | Clc1ccc2c(c1)CCN(Cc1ccccc1Cl)C2 | 4.5 | 2 | 190
22 | COC(=O)[C@H](c1ccccc1Cl)N1CCc2sccc2C1 [CLOPIDOGREL] | 8.1 | 0.19 | 150
23 | Clc1ccccc1CN1CCCCC1 | 2 | 2 | 1100
24 | Clc1ccccc1CN1CCCC1 | 2 | 2 | 
25 | O=[N+]([O-])c1ccccc1CN1CCc2ccccc2C1 | 8.3 | 0.19 | 
26 | c1ccc(CN2CCc3ccccc3C2)cc1 | 1.3 | 0.63 | 270
27 | Clc1cccc(CN2CCc3ccccc3C2)c1 | 8.1 | 2 | 270
